{
  "source": "ChEMBL document CHEMBL1201862",
  "about": "“PubChem BioAssay data set” (2004)",
  "assay_in_all_cases": "NCI tumour cell line growth inhibition, 48 h",
  "key": {"786-0": {"system": "786-0"}, "A549": {"system": "A549"}, "ACHN": {"system": "ACHN"}, "BT-549": {"system": "BT-549"}, "CAKI-1": {"system": "CAKI-1"}, "COLO 205": {"system": "COLO 205"}, "DU-145": {"system": "DU-145"}, "EKVX": {"system": "EKVX"}, "HCC 2998": {"system": "HCC 2998"}, "HCT-116": {"system": "HCT-116"}, "HCT-15": {"system": "HCT-15"}, "HL-60": {"system": "HL-60"}, "HOP-62": {"system": "HOP-62"}, "HT-29": {"system": "HT-29"}, "Hs-578T": {"system": "Hs-578T"}, "IGROV-1": {"system": "IGROV-1"}, "K562": {"system": "K562"}, "KM12": {"system": "KM12"}, "LOX IMVI": {"system": "LOX IMVI"}, "M14": {"system": "M14"}, "MCF7": {"system": "MCF7"}, "MDA-MB-231": {"system": "MDA-MB-231"}, "MDA-MB-435": {"system": "MDA-MB-435"}, "MOLT-4": {"system": "MOLT-4"}, "Malme-3M": {"system": "Malme-3M"}, "NCI-H226": {"system": "NCI-H226"}, "NCI-H23": {"system": "NCI-H23"}, "NCI-H460": {"system": "NCI-H460"}, "NCI-H522": {"system": "NCI-H522"}, "NCI/ADR-RES": {"system": "NCI/ADR-RES"}, "OVCAR-3": {"system": "OVCAR-3"}, "OVCAR-4": {"system": "OVCAR-4"}, "OVCAR-5": {"system": "OVCAR-5"}, "OVCAR-8": {"system": "OVCAR-8"}, "PC-3": {"system": "PC-3"}, "RPMI-8226": {"system": "RPMI-8226"}, "RXF 393": {"system": "RXF 393"}, "SF-268": {"system": "SF-268"}, "SF-295": {"system": "SF-295"}, "SF-539": {"system": "SF-539"}, "SK-MEL-28": {"system": "SK-MEL-28"}, "SK-MEL-2": {"system": "SK-MEL-2"}, "SK-MEL-5": {"system": "SK-MEL-5"}, "SK-OV-3": {"system": "SK-OV-3"}, "SN12C": {"system": "SN12C"}, "SNB-19": {"system": "SNB-19"}, "SNB-75": {"system": "SNB-75"}, "SR": {"system": "SR"}, "SW-620": {"system": "SW-620"}, "T47D": {"system": "T47D"}, "TK-10": {"system": "TK-10"}, "U-251": {"system": "U-251"}, "UACC-257": {"system": "UACC-257"}, "UACC-62": {"system": "UACC-62"}, "UO-31": {"system": "UO-31"}},
  "note": "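Cells were grown in 96-well plates and exposed to each compound for 48 hours at five concentrations; endpoints were interpolated linearly between bracketing concentrations, or set to the highest concentration if not reached. Here, GI50 denotes the concentration required for 50% inhibition of growth.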 Calls of active or inactive are those of the source. No stated cut-off is given here; in the data, active = GI50 up to about 1.1 µM and inactive = higher.",
  "data": [
    {"smiles": "C/C(=C\\CSCC(N)C(=O)O)CC/C=C(\\C)CNc1ccccc1", "note": "(stereo not given)", "values": [
      {"measurement": "GI50", "setting": "786-0", "result": "> 100 µM (inactive)"},
      {"measurement": "GI50", "setting": "A549", "result": "> 100 µM (inactive)"},
      {"measurement": "GI50", "setting": "ACHN", "result": "> 100 µM (inactive)"},
      {"measurement": "GI50", "setting": "BT-549", "result": "64.1 µM (inactive)"},
      {"measurement": "GI50", "setting": "CAKI-1", "result": "> 100 µM (inactive)"},
      {"measurement": "GI50", "setting": "COLO 205", "result": "> 100 µM (inactive)"},
      {"measurement": "GI50", "setting": "DU-145", "result": "> 100 µM (inactive)"},
      {"measurement": "GI50", "setting": "EKVX", "result": "> 100 µM (inactive)"},
      {"measurement": "GI50", "setting": "HCC 2998", "result": "> 100 µM (inactive)"},
      {"measurement": "GI50", "setting": "HCT-116", "result": "> 100 µM (inactive)"},
      {"measurement": "GI50", "setting": "HCT-15", "result": "> 100", "unit": "µM"},
      {"measurement": "GI50", "setting": "HL-60", "result": "> 100 µM (inactive)"},
      {"measurement": "GI50", "setting": "HOP-62", "result": "> 100 µM (inactive)"},
      {"measurement": "GI50", "setting": "HT-29", "result": "> 100 µM (inactive)"},
      {"measurement": "GI50", "setting": "Hs-578T", "result": "> 100 µM (inactive)"},
      {"measurement": "GI50", "setting": "IGROV-1", "result": "> 100 µM (inactive)"},
      {"measurement": "GI50", "setting": "K562", "result": "> 100 µM (inactive)"},
      {"measurement": "GI50", "setting": "KM12", "result": "> 100 µM (inactive)"},
      {"measurement": "GI50", "setting": "LOX IMVI", "result": "> 100 µM (inactive)"},
      {"measurement": "GI50", "setting": "M14", "result": "> 100 µM (inactive)"},
      {"measurement": "GI50", "setting": "MCF7", "result": "> 100 µM (inactive)"},
      {"measurement": "GI50", "setting": "MDA-MB-231", "result": "> 100 µM (inactive)"},
      {"measurement": "GI50", "setting": "MDA-MB-435", "result": "> 100 µM (inactive)"},
      {"measurement": "GI50", "setting": "MOLT-4", "result": "> 100 µM (inactive)"},
      {"measurement": "GI50", "setting": "Malme-3M", "result": "> 100 µM (inactive)"},
      {"measurement": "GI50", "setting": "NCI-H226", "result": "> 100 µM (inactive)"},
      {"measurement": "GI50", "setting": "NCI-H23", "result": "> 100 µM (inactive)"},
      {"measurement": "GI50", "setting": "NCI-H460", "result": "> 100 µM (inactive)"},
      {"measurement": "GI50", "setting": "NCI-H522", "result": "49 µM (inactive)"},
      {"measurement": "GI50", "setting": "NCI/ADR-RES", "result": "> 100 µM (inactive)"},
      {"measurement": "GI50", "setting": "OVCAR-3", "result": "> 100 µM (inactive)"},
      {"measurement": "GI50", "setting": "OVCAR-4", "result": "> 100 µM (inactive)"},
      {"measurement": "GI50", "setting": "OVCAR-5", "result": "> 100 µM (inactive)"},
      {"measurement": "GI50", "setting": "OVCAR-8", "result": "> 100 µM (inactive)"},
      {"measurement": "GI50", "setting": "PC-3", "result": "> 100 µM (inactive)"},
      {"measurement": "GI50", "setting": "RPMI-8226", "result": "421 nM (active)"},
      {"measurement": "GI50", "setting": "RXF 393", "result": "> 100 µM (inactive)"},
      {"measurement": "GI50", "setting": "SF-268", "result": "> 100 µM (inactive)"},
      {"measurement": "GI50", "setting": "SF-295", "result": "> 100 µM (inactive)"},
      {"measurement": "GI50", "setting": "SF-539", "result": "> 100 µM (inactive)"},
      {"measurement": "GI50", "setting": "SK-MEL-28", "result": "> 100 µM (inactive)"},
      {"measurement": "GI50", "setting": "SK-MEL-2", "result": "> 100 µM (inactive)"},
      {"measurement": "GI50", "setting": "SK-MEL-5", "result": "75.2 µM (inactive)"},
      {"measurement": "GI50", "setting": "SK-OV-3", "result": "> 100 µM (inactive)"},
      {"measurement": "GI50", "setting": "SN12C", "result": "> 100 µM (inactive)"},
      {"measurement": "GI50", "setting": "SNB-19", "result": "> 100 µM (inactive)"},
      {"measurement": "GI50", "setting": "SNB-75", "result": "> 100 µM (inactive)"},
      {"measurement": "GI50", "setting": "SR", "result": "> 100 µM (inactive)"},
      {"measurement": "GI50", "setting": "SW-620", "result": "> 100 µM (inactive)"},
      {"measurement": "GI50", "setting": "T47D", "result": "> 100 µM (inactive)"},
      {"measurement": "GI50", "setting": "TK-10", "result": "> 100 µM (inactive)"},
      {"measurement": "GI50", "setting": "U-251", "result": "> 100 µM (inactive)"},
      {"measurement": "GI50", "setting": "UACC-257", "result": "> 100 µM (inactive)"},
      {"measurement": "GI50", "setting": "UACC-62", "result": "> 100 µM (inactive)"},
      {"measurement": "GI50", "setting": "UO-31", "result": "82 µM (inactive)"}
    ]}
  ]
}
